The supplement of paper PMC11061612

Legend:
Assay in all cases: combination Emax (second highest fraction inhibited in the dose matrix, 72 h); higher = more inhibition; extreme values may be limits of the assay
769-P (Kidney Carcinoma) = test system: 769-P (Kidney Carcinoma)
Summary of the method: (§1)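 Cell lines in DMEM/F12 or RPMI with 10% FBS were plated in 1536-well plates, held 24 hours at 37°C, 5% CO2, then given two-drug dose matrices for 72 hours (DMSO typically 0.2%). Viability was read by CellTiter-Glo 2.0 luminescence and scaled as inhibition from 0 (vehicle wells) to 1 (blank wells). Combination Emax is the second-highest inhibition in the matrix; Bliss excess is observed combination effect minus expected EA + EB − EA·EB, EA and EB being single-agent effects.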

[1] = test system: A253 (Head and Neck Carcinoma)
Summary of the method: as §1

[2] = test system: DMS-53 (Small Cell Lung Carcinoma)
Summary of the method: as §1

EW-7 (Ewing's Sarcoma) = test system: EW-7 (Ewing's Sarcoma)
Summary of the method: as §1

[3] = test system: GCT (Other Solid Carcinomas)
Summary of the method: as §1

[4] = test system: HCC1395 (Breast Carcinoma)
Summary of the method: as §1

[5] = test system: HT55 (Colorectal Carcinoma)
Summary of the method: as §1

[6] = test system: JHH-2 (Hepatocellular Carcinoma)
Summary of the method: as §1

[7] = test system: JHU-022 (Oral Cavity Carcinoma)
Summary of the method: as §1

KP-N-YN (Neuroblastoma) = test system: KP-N-YN (Neuroblastoma)
Summary of the method: as §1

[8] = test system: LS-411N (Colorectal Carcinoma)
Summary of the method: as §1

[9] = test system: LU-165 (Small Cell Lung Carcinoma)
Summary of the method: as §1

[10] = test system: MDA-MB-436 (Breast Carcinoma)
Summary of the method: as §1

NB13 (Neuroblastoma) = test system: NB13 (Neuroblastoma)
Summary of the method: as §1

[11] = test system: NCI-H441 (Lung Adenocarcinoma)
Summary of the method: as §1

[12] = test system: NCI-H716 (Colorectal Carcinoma)
Summary of the method: as §1

PEO1 (Ovarian Carcinoma) = test system: PEO1 (Ovarian Carcinoma)
Summary of the method: as §1

[13] = test system: SW620 (Colorectal Carcinoma)
Summary of the method: as §1

[14] = test system: UACC-812 (Breast Carcinoma)
Summary of the method: as §1

WM1552C (Melanoma) = test system: WM1552C (Melanoma)
Summary of the method: as §1

SMILES | combination Emax (769-P (Kidney Carcinoma)) | combination Emax [1] | combination Emax [2] | combination Emax (EW-7 (Ewing's Sarcoma)) | combination Emax [3] | combination Emax [4] | combination Emax [5] | combination Emax [6] | combination Emax [7] | combination Emax (KP-N-YN (Neuroblastoma)) | combination Emax [8] | combination Emax [9] | combination Emax [10] | combination Emax (NB13 (Neuroblastoma)) | combination Emax [11] | combination Emax [12] | combination Emax (PEO1 (Ovarian Carcinoma)) | combination Emax [13] | combination Emax [14] | combination Emax (WM1552C (Melanoma))
CC1(C)CCC(CN2CCN(c3ccc(C(=O)NS(=O)(=O)c4ccc(NCC5CCOCC5)c([N+](=O)[O-])c4)c(Oc4cnc5[nH]ccc5c4)c3)CC2)=C(c2ccc(Cl)cc2)C1 [Venetoclax] + C[C@@H]1COCCN1C2=NC(=NC(=C2)C3(CC3)[S@](=N)(=O)C)C4=C5C=CNC5=NC=C4 [AZD6738] (first compound max 1 µM, 7x7, partner max 10 µM) | 0.815 | 0.804 | 0.809 | 0.959 | 0.334 | 0.771 | 0.58 | 0.697 | 0.593 | 0.999 | 0.736 | 0.441 | 0.36 | 0.942 | 0.454 | 0.436 | 0.48 | 0.47 | 0.29 | 0.617
CN(C)CCCOc1ccc(-c2ccc3ncc4c(c3c2)n(C2CCOCC2)c(=O)n4C)cn1 [AZD0156] + CCN(CCO)CCCOc1ccc2c(Nc3cc(CC(=O)Nc4cccc(F)c4)[nH]n3)ncnc2c1 [AZD2811] (first compound max 1 µM, 7x7, partner max 1 µM) | 0.0806 | 0.212 | 0.0911 | 0.403 | 0.161 | 0.193 | 0.16 | 0.287 | 0.193 | 0.486 | 0.137 | 0.114 | 0.0531 | 0.479 | 0.112 | 0.45 | 0.157 | 0.158 | 0.148 | 0.242
CCc1c2c(nc3ccc(O)cc13)-c1cc3c(c(=O)n1C2)COC(=O)[C@]3(O)CC [SN-38] + CN(C)CCCOc1ccc(-c2ccc3ncc4c(c3c2)n(C2CCOCC2)c(=O)n4C)cn1 [AZD0156] (first compound max 0.3 µM, 7x7, partner max 1 µM) | 0.716 | 0.881 | 0.729 | 0.975 | 0.683 | 0.512 | 0.449 | 0.7 | 0.842 | 0.806 | 0.363 | 0.517 | 0.572 | 0.886 | 0.614 | 0.202 | 0.674 | 0.883 | 0.608 | 0.59
CC1(C)CCC(CN2CCN(c3ccc(C(=O)NS(=O)(=O)c4ccc(NCC5CCOCC5)c([N+](=O)[O-])c4)c(Oc4cnc5[nH]ccc5c4)c3)CC2)=C(c2ccc(Cl)cc2)C1 [Venetoclax] + C=CCn1c(=O)c2cnc(Nc3ccc(N4CCN(C)CC4)cc3)nc2n1-c1cccc(C(C)(C)O)n1 [AZD1775] (first compound max 1 µM, partner max 1 µM) | 0.744 | 0.313 | 0.694 | 0.974 | 0.431 | 0.81 | 0.664 | 0.882 | 0.388 | 0.981 | 0.55 | 0.364 | 0.231 | 0.928 | 0.489 | 0.377 | 0.337 | 0.51 | 0.0382 | 0.785
Cn1cnc2c(F)c(Nc3ccc(Br)cc3Cl)c(C(=O)NOCCO)cc21 [Selumetinib] + CC(C)n1c(=O)n(C)c2cnc3cc(F)c(-c4ccc(OCCCN5CCCCC5)nc4)cc3c21 [AZD1390] (first compound max 10 µM, 7x7, partner max 0.3 µM) | 0.294 | 0.18 | 0.132 | 0.15 | 0.287 | 0.192 | 0.669 | 0.315 | 0.497 | 0.398 | 0.666 | 0.213 | 0.259 | 0.0733 | 0.221 | 0.452 | 0.266 | 0.615 | 0.129 | 0.384
Cc1c2c(nn1C)CSCc1cc(n(C)n1)CSc1cc(c3ccccc3c1)OCCCc1c(C(=O)O)n(C)c3c-2c(Cl)ccc13 [AZD5991] + C[C@@H](Nc1cc(F)cc(F)c1)c1cc(C(=O)N(C)C)cc2c(=O)cc(N3CCOCC3)oc12 [AZD8186] (first compound max 1 µM, 7x7, partner max 3 µM) | 0.223 | 0.777 | 0.398 | 0.3 | 0.454 | 0.736 | 0.272 | 0.768 | 0.398 | 0.171 | 0.178 | 0.226 | 0.358 | 0.331 | 0.34 | 0.265 | 0.257 | 0.206 | 0.649 | 0.77
Cc1c2c(nn1C)CSCc1cc(n(C)n1)CSc1cc(c3ccccc3c1)OCCCc1c(C(=O)O)n(C)c3c-2c(Cl)ccc13 [AZD5991] + CC1(C)CCC(CN2CCN(c3ccc(C(=O)NS(=O)(=O)c4ccc(NCC5CCOCC5)c([N+](=O)[O-])c4)c(Oc4cnc5[nH]ccc5c4)c3)CC2)=C(c2ccc(Cl)cc2)C1 [Venetoclax] (first compound max 1 µM, 7x7, partner max 1 µM) | 0.122 | 0.868 | 0.828 | 0.487 | 0.288 | 0.736 | 0.13 | 0.218 | 0.116 | 0.817 | 0.157 | 0.291 | 0.0835 | 0.546 | 0.214 | 0.176 | 0.164 | 0.191 | 0.694 | 0.735
